Drawing on paper PMC11847542 (2025), this text covers binding, EC50 and ΔTm for seven compounds.

The test system of experiment [1] is KRAS RNA G4-c (KRAS RG4) (RNA, G4) AAGGUGGCGGCGGCUCG
In words: CD melting. Conditions: 1 mM K+, 10 mM Tris-HCl pH 7.4, 2 μM RNA.

Experiment [2] has the same test system. The experiment is described as follows: thiazole orange displacement, fluorescence. The following applies: 100 mM K+; 10 mM Tris-HCl pH 7.4; 0.25 μM RNA; tracer 0.5 μM thiazole orange displaced.
In experiment [3] the test system is KRAS RNA G4-a (RNA, G4) GCGGCGGCGGAGGCAGCA
The experiment is described as follows: CD melting. Conditions: 1 mM K+; 10 mM Tris-HCl pH 7.4; 2 μM RNA, 10 μM compound; Tm alone 66.0 °C.

For experiment [4], the system named is KRAS RNA G4-c (KRAS RG4) (RNA, G4) AAGGUGGCGGCGGCUCG
In words: EMSA. Conditions: 15% native PAGE, Tris-borate-EDTA; 10 μM RNA, 0-50 μM compound. A general note: In EMSA bound probe runs differently from free probe, usually more slowly.

In experiment [5] the test system is 5'-Cy5-labeled KRAS RG4 (G4-c) (RNA, G4) AAGGUGGCGGCGGCUCG
The experiment is described as follows: fluorescence quenching titration of Cy5. Conditions: 100 mM K+; 10 mM Tris-HCl pH 7.4; 1 μM RNA.

In experiment [6] the test system is KRAS RNA G4-b (RNA, G4) GGCGGCGGCAGUGGCGGCGG
The experiment is described as follows: CD melting. Conditions: 1 mM K+; 10 mM Tris-HCl pH 7.4; 2 μM RNA, 10 μM compound; Tm alone 59.5 °C.

The subject of experiment [7] is DNA hairpin (DNA, hairpin) CGCGCGCGTTTTCGCGCGCG
The experiment is described as follows: competition: fluorescence recovery of MBD-quenched Cy5-labeled KRAS RG4. Conditions: 100 mM K+; 10 mM Tris-HCl pH 7.4; DNA hairpin added as competitor to 1 μM Cy5-G4-c with MBD.

For experiment [8], the system named is 3'-Cy5-labeled KRAS RG4 (G4-c) (RNA, G4) AAGGUGGCGGCGGCUCG
The experiment is described as follows: fluorescence quenching titration of Cy5. Conditions: 100 mM K+; 10 mM Tris-HCl pH 7.4; 1 μM RNA.

In experiment [9] the test system is RNA hairpin (RNA, hairpin) GGCCGCCGCAGUGGCGGCGG
The experiment is described as follows: competition: fluorescence recovery of MBD-quenched Cy5-labeled KRAS RG4. The following applies: 100 mM K+; 10 mM Tris-HCl pH 7.4; RNA hairpin added as competitor to 1 μM Cy5-G4-c with MBD.

In experiment [10] the test system is KRAS RNA G4-c (KRAS RG4) (RNA, G4) AAGGUGGCGGCGGCUCG
In words: 1H NMR, imino protons. Conditions: K+ (potassium phosphate, concentration not stated), 10% D2O, 25 °C, 200 μM RNA, 1 to 5 equivalents.

On to `CC1CCN(c2ccc3c(c2)c2cc(N4CCC(C)CC4)ccc2c2nc4cc5ccccc5cc4nc32)CC1`, for which, in [1], the binding entry was “no”. Also, in experiment [2], the EC50 (in general, the concentration that produces a half-maximal response) worked out at 45.0 µM.

As to `CC1CCN(c2ccc3c(c2)c2cc([N+]4(C)CCC(C)CC4)ccc2c2nc4cc(Cl)c(Cl)cc4nc32)CC1` (stereo not shown), the binding result in experiment [1] is on record as “weak”. The compound further returned an EC50 in experiment [2] of 7.0 µM.

For the compound `CC1CCN(c2ccc3c(c2)c2cc([N+]4(C)CCC(C)CC4)ccc2c2nc4cc(F)c(F)cc4nc32)CC1` (stereo not shown), in experiment [1], the binding result was “weak”. In [2], this compound displayed an EC50 of 3.3 µM.

Take `CC1CCN(c2ccc3c(c2)c2cc([N+]4(C)CCC(C)CC4)ccc2c2nc4cc5ccccc5cc4nc32)CC1` (stereo not shown): the binding result is given as “yes” in experiment [3]; “yes” in [4]; “yes” in experiment [5]; “yes” in experiment [6]; “no” in [7]; “yes” in [8]. The binding entry in [9] is given as “no”; in [10] it was “yes”. Also, in [1] (10 μM compound, Tm alone 64.1 °C), the ΔTm (commonly the change in melting temperature against a reference sample) worked out at 11.0 °C. The EC50 in experiment [2] was found to be 1.5 µM.

`CC1CCN(c2ccc3c(c2)c2cc([N+]4(C)CCC(C)CC4)ccc2c2nc4ccccc4nc32)CC1` (stereo not shown): the binding entry in [1] is “weak”. Besides, the EC50 in [2] is on record as 1.8 µM.

In the case of `COc1cc2nc3c4ccc(N5CCC(C)CC5)cc4c4cc([N+]5(C)CCC(C)CC5)ccc4c3nc2cc1OC` (stereo not shown), the binding result in experiment [1] was “yes”. In experiment [2], this compound yielded an EC50 of 1.4 µM.

Consider `Cc1cc2nc3c4ccc(N5CCC(C)CC5)cc4c4cc([N+]5(C)CCC(C)CC5)ccc4c3nc2cc1C` (stereo not shown), for which, in experiment [1], the binding result is “yes”. In addition, the EC50 in [2] was 1.5 µM.
